Source: the supplement of paper PMC10307832

Columns and labels:
Assay in all cases: relative viability (nuclei count vs DMSO), 5 days (fraction); higher = more cells survive
Everolimus + Lapatinib = compound: CO[C@H]1C[C@@H]2CC[C@@H](C)[C@@](O)(O2)C(=O)C(=O)N2CCCC[C@H]2C(=O)O[C@H]([C@H](C)C[C@@H]2CC[C@@H](OCCO)[C@H](OC)C2)CC(=O)[C@H](C)/C=C(\C)[C@@H](O)[C@@H](OC)C(=O)[C@H](C)C[C@H](C)/C=C/C=C/C=C/1C [Everolimus] + CS(=O)(=O)CCNCc1ccc(-c2ccc3ncnc(Nc4ccc(OCc5cccc(F)c5)c(Cl)c4)c3c2)o1 [Lapatinib] (partner 2 µM)
Summary of the method: (§1)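 For relative viability, nuclei counts in treated wells were divided by those in vehicle wells. Lung cancer cell lines had been pin-tool dosed in 1536-well plates the day after seeding and cultured for 5 days, then fixed and stained in one step (final 0.05% Triton X-100, 1% formaldehyde, 1 ug/ml Hoechst) and imaged at 4×. Doses were one drug alone or a fixed anchor-drug dose plus five library-drug doses (not always all listed) in √10 steps, and values are duplicate-plate medians.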

Everolimus + OSI-027 = compound: CO[C@H]1C[C@@H]2CC[C@@H](C)[C@@](O)(O2)C(=O)C(=O)N2CCCC[C@H]2C(=O)O[C@H]([C@H](C)C[C@@H]2CC[C@@H](OCCO)[C@H](OC)C2)CC(=O)[C@H](C)/C=C(\C)[C@@H](O)[C@@H](OC)C(=O)[C@H](C)C[C@H](C)/C=C/C=C/C=C/1C [Everolimus] + COc1cccc2cc(-c3nc([C@H]4CC[C@H](C(=O)O)CC4)n4ncnc(N)c34)[nH]c12 [OSI-027] (partner 0.5 µM)
Summary of the method: as §1

Everolimus + Trametinib = compound: CO[C@H]1C[C@@H]2CC[C@@H](C)[C@@](O)(O2)C(=O)C(=O)N2CCCC[C@H]2C(=O)O[C@H]([C@H](C)C[C@@H]2CC[C@@H](OCCO)[C@H](OC)C2)CC(=O)[C@H](C)/C=C(\C)[C@@H](O)[C@@H](OC)C(=O)[C@H](C)C[C@H](C)/C=C/C=C/C=C/1C [Everolimus] + CC(=O)Nc1cccc(-n2c(=O)n(C3CC3)c(=O)c3c(Nc4ccc(I)cc4F)n(C)c(=O)c(C)c32)c1 [Trametinib] (partner 0.02 µM)
Summary of the method: as §1

Everolimus + Linsitinib = compound: CO[C@H]1C[C@@H]2CC[C@@H](C)[C@@](O)(O2)C(=O)C(=O)N2CCCC[C@H]2C(=O)O[C@H]([C@H](C)C[C@@H]2CC[C@@H](OCCO)[C@H](OC)C2)CC(=O)[C@H](C)/C=C(\C)[C@@H](O)[C@@H](OC)C(=O)[C@H](C)C[C@H](C)/C=C/C=C/C=C/1C [Everolimus] + C[C@]1(O)C[C@@H](c2nc(-c3ccc4ccc(-c5ccccc5)nc4c3)c3c(N)nccn32)C1 [Linsitinib] (partner 1 µM)
Summary of the method: as §1

| Cell Line | relative viability (Everolimus + Lapatinib; first compound 0.01 µM) | relative viability (Everolimus + Lapatinib; first compound 0.03162 µM) | relative viability (Everolimus + Lapatinib; first compound 0.1 µM) | relative viability (Everolimus + Lapatinib; first compound 0.3162 µM) | relative viability (Everolimus + Lapatinib; first compound 1 µM) | relative viability (Everolimus + OSI-027; first compound 0.01 µM) | relative viability (Everolimus + OSI-027; first compound 0.03162 µM) | relative viability (Everolimus + OSI-027; first compound 0.1 µM) | relative viability (Everolimus + OSI-027; first compound 0.3162 µM) | relative viability (Everolimus + OSI-027; first compound 1 µM) | relative viability (Everolimus + Trametinib; first compound 0.01 µM) | relative viability (Everolimus + Trametinib; first compound 0.03162 µM) | relative viability (Everolimus + Trametinib; first compound 0.1 µM) | relative viability (Everolimus + Trametinib; first compound 0.3162 µM) | relative viability (Everolimus + Trametinib; first compound 1 µM) | relative viability (Everolimus + Linsitinib; first compound 0.01 µM) | relative viability (Everolimus + Linsitinib; first compound 0.03162 µM) | relative viability (Everolimus + Linsitinib; first compound 0.1 µM) | relative viability (Everolimus + Linsitinib; first compound 0.3162 µM) | relative viability (Everolimus + Linsitinib; first compound 1 µM) |
| --- | --- | --- | --- | --- | --- | --- | --- | --- | --- | --- | --- | --- | --- | --- | --- | --- | --- | --- | --- | --- |
| NCI-H1975 | 0.788 | 0.669 | 0.669 | 0.762 | 0.676 | 0.496 | 0.498 | 0.45 | 0.473 | 0.436 | 0.389 | 0.373 | 0.287 | 0.276 | 0.226 | 0.747 | 0.618 | 0.672 | 0.665 | 0.597 |
| NCI-H1993 | 0.725 | 0.69 | 0.649 | 0.791 | 0.807 | 0.566 | 0.554 | 0.53 | 0.529 | 0.553 | 0.423 | 0.469 | 0.486 | 0.464 | 0.536 | 0.689 | 0.63 | 0.666 | 0.694 | 0.691 |
| NCI-H2009 | 0.853 | 0.782 | 0.441 | 0.878 | 0.877 | 0.34 | 0.344 | 0.424 | 0.374 | 0.397 | 0.132 | 0.121 | 0.14 | 0.138 | 0.158 | 0.875 | 0.897 | 0.901 | 0.887 | 0.795 |
| NCI-H2023 | 0.604 | 0.456 | 0.378 | 0.616 | 0.314 | 0.197 | 0.25 | 0.178 | 0.153 | 0.158 | 0.259 | 0.216 | 0.247 | 0.187 | 0.225 | 0.301 | 0.323 | 0.303 | 0.282 | 0.219 |
| NCI-H2085 | 0.489 | 0.364 | 0.434 | 0.506 | 0.486 | 0.457 | 0.454 | 0.257 | 0.476 | 0.438 | 0.313 | 0.329 | 0.299 | 0.264 | 0.297 | 0.735 | 0.522 | 0.519 | 0.509 | 0.484 |
| NCI-H2087 | 1.2 | 1.05 | 0.824 | 0.848 | 1.05 | 0.356 | 0.327 | 0.388 | 0.49 | 0.233 | 0.158 | 0.137 | 0.185 | 0.161 | 0.143 | 0.821 | 1.09 | 0.765 | 0.788 | 0.674 |
| NCI-H2126 | 0.458 | 0.485 | 0.426 | 0.472 | 0.501 | 0.528 | 0.431 | 0.414 | 0.475 | 0.426 | 0.39 | 0.362 | 0.371 | 0.343 | 0.383 | 0.463 | 0.448 | 0.393 | 0.425 | 0.457 |
| NCI-H2228 | 0.89 | 0.7 | 0.705 | 0.582 | 0.793 | 0.23 | 0.295 | 0.237 | 0.21 | 0.265 | 0.33 | 0.237 | 0.256 | 0.251 | 0.265 | 0.272 | 0.351 | 0.552 | 0.249 | 0.364 |
| NCI-H2347 | 0.813 | 1.07 | 0.663 | 0.868 | 0.811 | 0.382 | 0.253 | 0.326 | 0.501 | 0.34 | 0.266 | 0.337 | 0.244 | 0.261 | 0.286 | 0.912 | 0.911 | 0.581 | 0.798 | 0.769 |
| NCI-H2405 | 0.84 | 0.903 | 0.712 | 0.872 | 0.796 | 0.505 | 0.474 | 0.532 | 0.459 | 0.488 | 0.419 | 0.362 | 0.385 | 0.426 | 0.431 | 0.515 | 0.49 | 0.463 | 0.536 | 0.536 |
| NCI-H3122 | 1.09 | 1.16 | 1.06 | 1.07 | 0.951 | 0.463 | 0.579 | 0.315 | 0.454 | 0.488 | 0.167 | 0.147 | 0.172 | 0.141 | 0.11 | 0.791 | 0.822 | 0.621 | 0.528 | 0.761 |
| PC-3 [JPC-3] | 0.372 | 0.382 | 0.346 | 0.359 | 0.412 | 0.7 | 0.602 | 0.588 | 0.512 | 0.631 | 0.601 | 0.582 | 0.531 | – | 0.681 | 0.869 | 0.914 | 0.785 | 0.834 | 0.866 |
| PC-14 | 0.231 | 0.226 | 0.22 | 0.192 | 0.234 | 0.567 | 0.482 | 0.418 | 0.455 | 0.455 | 0.297 | 0.444 | 0.23 | 0.36 | 0.276 | 0.937 | 1 | 0.945 | 0.82 | 0.724 |
| RERF-LC-KJ | 0.636 | 0.597 | 0.503 | 0.487 | 0.486 | 0.449 | 0.358 | 0.313 | 0.411 | 0.429 | 0.654 | 0.613 | 0.495 | 0.494 | 0.524 | 0.86 | 0.679 | 0.609 | 0.531 | 0.571 |
| SK-LU-1 | 0.638 | 0.624 | 0.576 | 0.49 | 0.61 | 0.225 | 0.187 | 0.248 | 0.269 | 0.265 | 0.39 | 0.355 | 0.298 | 0.345 | 0.317 | 0.501 | 0.66 | 0.552 | 0.614 | 0.631 |
| SK-MES-1 | 0.358 | 0.384 | 0.326 | 0.384 | 0.325 | 0.398 | 0.512 | 0.499 | 0.414 | 0.483 | 0.38 | 0.412 | 0.372 | 0.397 | 0.277 | 0.964 | 0.661 | 0.689 | 0.606 | 0.511 |
| SW 1573 | 0.649 | 0.705 | 0.627 | 0.686 | 0.572 | 0.42 | 0.309 | 0.352 | 0.345 | 0.365 | 0.3 | 0.311 | 0.291 | 0.303 | 0.281 | 0.615 | 0.454 | 0.506 | 0.401 | 0.386 |
| UMC-11 | 0.373 | 0.326 | 0.306 | 0.433 | 0.438 | 0.272 | 0.288 | 0.257 | 0.297 | 0.277 | 0.267 | 0.299 | 0.252 | 0.348 | 0.295 | 0.443 | 0.391 | 0.419 | 0.388 | 0.393 |
